The assay deals with pAKT S473. Briefly: CyTOF maximal inhibition in Undefined/Immature Myeloid cells: pAKT. It is filed as in vivo, human. From the text:
Pharmacodynamic endpoints included the measurement of inhibition of pAXL, pERK, pAKT, pS6 and pSTAT1/3/5 in blast cells (defined as cells with abnormal surface marker expression as compared to healthy donor peripheral blood mononuclear cells and undefined/immature myeloid cells (defined as cells carrying myeloid markers but lacking distinguishing terminal differentiation markers). Mass cytometry time of flight (CyTOF) was used for the determination of the pharmacodynamic markers using a previously validated and tested panel of mass-tagged antibodies[39],[40]. The antibodies in the panel are listed in Supplementary Table 5. Briefly, fixed leukocytes from peripheral blood were barcoded using a 20-plex metal barcoding kit (Standard Biotools, Cell-ID 201060) according to manufacturer’s protocol, allowing all the samples from a single individual to be stained and analysed in parallel. All analysis runs included barcoded peripheral blood mononuclear cells (PBMCs) from at least one healthy donor and an identical barcoded reference sample (mix of PBMCs from six healthy donors). […]
For each population, marker, and sample, the 95th percentile of the non-transformed expression values was calculated. […]

As a reminder, the EC50 is the midpoint of the concentration-response curve.

Values after ≈ are worked out from the molar mass of the structure shown. Values joined by “and” are separate entries in the source; they are usually repeats but may differ in a detail not shown here. Equal entries are not always repeated.

As to `Nc1nc(Nc2ccc3c(c2)CC[C@@H](N2CCCC2)CC3)nn1-c1cc2c(nn1)-c1ccccc1CCC2` [Bemcentinib], the 50% effective concentration (EC50) (Homo sapiens, Undefined/Immature Myeloid cells, N = 12 patients, read-out: EC50 (± standard error), pAKT S473 inhibition) came to 0.162 µg/mL (≈ 0.32 µM). For the setting “Supplementary Figure 1d, individual patients”, the “Maximum inhibition (percent) pAKT (S473)” value was 59.9% and 67.4% and 81.4% and 10.2% and 98.8% and 2.4% and 56.3% and 0% and 5.8% and 33.9% and 39.1% and 94.9%.
